Assay results published in PubChem BioAssay (NCI).
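Protocol summary: plate cells (96-well), add compound at 5 concentrations, incubate 48 h, interpolate endpoints linearly. GI50 is the concentration that inhibits growth by half. TGI denotes the concentration required for complete inhibition of growth.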

Legend:
Assay in all cases: DTP human tumour cell line panel, 48 h
HL-60(TB) leukemia = test system: HL-60(TB) leukemia
CAKI-1 renal = test system: CAKI-1 renal
OVCAR-8 ovarian = test system: OVCAR-8 ovarian
EKVX NSCLC = test system: EKVX NSCLC
HCC-2998 colon = test system: HCC-2998 colon
RXF 393 renal = test system: RXF 393 renal
RPMI-8226 leukemia = test system: RPMI-8226 leukemia
MDA-MB-231 breast = test system: MDA-MB-231 breast
SNB-19 CNS = test system: SNB-19 CNS
NCI-H23 lung = test system: NCI-H23 lung

CCCCCCNc1nc(NCCCCCC)c2[nH]c(NCCCCCC)nc2n1
GI50 (HL-60(TB) leukemia): 1.58 µM | TGI (HL-60(TB) leukemia): 4.22 µM | GI50 (CAKI-1 renal): 16.2 µM | TGI (CAKI-1 renal): 50.9 µM | GI50 (OVCAR-8 ovarian): 9.96 µM | TGI (OVCAR-8 ovarian): 30.8 µM | GI50 (EKVX NSCLC): 5.51 µM | TGI (EKVX NSCLC): 30 µM | GI50 (HCC-2998 colon): 12.5 µM | TGI (HCC-2998 colon): 26.8 µM | GI50 (RXF 393 renal): 4.23 µM | TGI (RXF 393 renal): 17.5 µM | GI50 (RPMI-8226 leukemia): 1.86 µM | TGI (RPMI-8226 leukemia): 10.3 µM | GI50 (MDA-MB-231 breast): 5.09 µM | TGI (MDA-MB-231 breast): 19.3 µM | GI50 (SNB-19 CNS): 15.5 µM | TGI (SNB-19 CNS): 29.5 µM | GI50 (NCI-H23 lung): 8.77 µM | TGI (NCI-H23 lung): 23.3 µM

COc1ccccc1C(=O)c1ccc2ccccc2c1
TGI (HL-60(TB) leukemia): 21.8 µM | TGI (CAKI-1 renal): 49.2 µM | TGI (OVCAR-8 ovarian): 75.9 µM | TGI (EKVX NSCLC): 77.8 µM | TGI (HCC-2998 colon): > 100 µM | TGI (RXF 393 renal): 61 µM | TGI (RPMI-8226 leukemia): 97.5 µM | TGI (MDA-MB-231 breast): > 100 µM | TGI (SNB-19 CNS): 78.4 µM | TGI (NCI-H23 lung): > 100 µM

CS(=O)(=O)Nc1ccc(-c2ccc3c(NC(=O)C4CC4)n[nH]c3c2)cc1
GI50 (HL-60(TB) leukemia): > 16.7 µM | TGI (HL-60(TB) leukemia): > 25 µM | GI50 (CAKI-1 renal): > 25 µM | TGI (CAKI-1 renal): > 25 µM | GI50 (OVCAR-8 ovarian): > 25 µM | TGI (OVCAR-8 ovarian): > 25 µM | GI50 (EKVX NSCLC): > 25 µM | TGI (EKVX NSCLC): > 25 µM | GI50 (HCC-2998 colon): > 25 µM | TGI (HCC-2998 colon): > 25 µM | GI50 (RXF 393 renal): > 17.7 µM | TGI (RXF 393 renal): > 25 µM | GI50 (RPMI-8226 leukemia): 13.7 µM | TGI (RPMI-8226 leukemia): > 25 µM | GI50 (MDA-MB-231 breast): > 25 µM | TGI (MDA-MB-231 breast): > 25 µM | GI50 (SNB-19 CNS): > 25 µM | TGI (SNB-19 CNS): > 25 µM | GI50 (NCI-H23 lung): > 25 µM | TGI (NCI-H23 lung): > 25 µM

C=CC(=O)N1CCN(c2ncnc3c(F)c(-c4c(O)cccc4F)c(Cl)cc23)CC1
GI50 (HL-60(TB) leukemia): 6.76 µM | TGI (HL-60(TB) leukemia): 45.6 µM | GI50 (CAKI-1 renal): 12.6 µM | TGI (CAKI-1 renal): 25.8 µM | GI50 (OVCAR-8 ovarian): 19.3 µM | TGI (OVCAR-8 ovarian): 67 µM | GI50 (EKVX NSCLC): 15.1 µM | TGI (EKVX NSCLC): 28.9 µM | GI50 (HCC-2998 colon): 17.5 µM | TGI (HCC-2998 colon): 32.7 µM | GI50 (RXF 393 renal): 2.27 µM | TGI (RXF 393 renal): 14.7 µM | GI50 (RPMI-8226 leukemia): 5.69 µM | TGI (RPMI-8226 leukemia): 36.6 µM | GI50 (MDA-MB-231 breast): 14.3 µM | TGI (MDA-MB-231 breast): 35.9 µM | GI50 (SNB-19 CNS): 14 µM | TGI (SNB-19 CNS): 27.3 µM | GI50 (NCI-H23 lung): 0.43 µM | TGI (NCI-H23 lung): 15.9 µM

COc1ccc2c(-c3cc4ccccc4o3)cc(=O)oc2c1
TGI (HL-60(TB) leukemia): > 100 µM | TGI (CAKI-1 renal): > 87.4 µM | TGI (OVCAR-8 ovarian): > 100 µM | TGI (EKVX NSCLC): > 100 µM | TGI (HCC-2998 colon): > 100 µM | TGI (RXF 393 renal): 53.5 µM | TGI (RPMI-8226 leukemia): > 100 µM | TGI (MDA-MB-231 breast): > 100 µM | TGI (SNB-19 CNS): > 100 µM | TGI (NCI-H23 lung): > 100 µM

NCCN1CCN(c2nccc(-c3ccc4ccccc4c3)n2)CC1
GI50 (HL-60(TB) leukemia): 2.23 µM | TGI (HL-60(TB) leukemia): 5.76 µM | GI50 (CAKI-1 renal): 1.55 µM | TGI (CAKI-1 renal): 2.95 µM | GI50 (OVCAR-8 ovarian): 2.25 µM | TGI (OVCAR-8 ovarian): 5.6 µM | GI50 (EKVX NSCLC): 1.83 µM | TGI (EKVX NSCLC): 4.08 µM | GI50 (HCC-2998 colon): 1.74 µM | TGI (HCC-2998 colon): 3.46 µM | GI50 (RXF 393 renal): 1.46 µM | TGI (RXF 393 renal): 3.07 µM | GI50 (RPMI-8226 leukemia): 2.08 µM | TGI (RPMI-8226 leukemia): 5.72 µM | GI50 (MDA-MB-231 breast): 1.66 µM | TGI (MDA-MB-231 breast): 3.31 µM | GI50 (SNB-19 CNS): 2.26 µM | TGI (SNB-19 CNS): 5.98 µM | GI50 (NCI-H23 lung): 4.17 µM | TGI (NCI-H23 lung): 16.5 µM

Cc1c(-c2nc(N)nc(C3CC3)c2C)nc(N)nc1C1CC1
TGI (HL-60(TB) leukemia): > 100 µM | TGI (CAKI-1 renal): > 100 µM | TGI (OVCAR-8 ovarian): > 100 µM | TGI (EKVX NSCLC): > 100 µM | TGI (HCC-2998 colon): > 100 µM | TGI (RXF 393 renal): > 100 µM | TGI (RPMI-8226 leukemia): > 100 µM | TGI (MDA-MB-231 breast): > 100 µM | TGI (SNB-19 CNS): > 100 µM | TGI (NCI-H23 lung): > 100 µM

CCN(CCO)CCNc1ccc(C)c2sc3cc(Cl)ccc3c(=O)c12
GI50 (HL-60(TB) leukemia): 1.56 µM | TGI (HL-60(TB) leukemia): 3.55 µM | GI50 (CAKI-1 renal): 1.72 µM | TGI (CAKI-1 renal): 4.03 µM | GI50 (OVCAR-8 ovarian): 1.78 µM | TGI (OVCAR-8 ovarian): 3.38 µM | GI50 (EKVX NSCLC): 1.62 µM | TGI (EKVX NSCLC): 3.18 µM | GI50 (HCC-2998 colon): 1.51 µM | TGI (HCC-2998 colon): 3.14 µM | GI50 (RXF 393 renal): 0.738 µM | TGI (RXF 393 renal): 2.2 µM | GI50 (RPMI-8226 leukemia): 1.86 µM | TGI (RPMI-8226 leukemia): 4.6 µM | GI50 (MDA-MB-231 breast): 0.783 µM | TGI (MDA-MB-231 breast): 2.24 µM | GI50 (SNB-19 CNS): 1.58 µM | TGI (SNB-19 CNS): 3.17 µM | GI50 (NCI-H23 lung): 1.63 µM | TGI (NCI-H23 lung): 3.45 µM

CCOC(=O)[C@@H](C)C[C@H](Cc1ccccc1)NC(=O)c1csc([C@@H](C[C@H](C(C)C)N(C)C(=O)[C@@H](NC(=O)[C@H]2CCCCN2C)C(C)(C)C)OC(C)=O)n1
GI50 (HL-60(TB) leukemia): < 0.00167 µM | TGI (HL-60(TB) leukemia): < 0.00167 µM | GI50 (CAKI-1 renal): < 0.00167 µM | TGI (CAKI-1 renal): > 16.7 µM | GI50 (OVCAR-8 ovarian): < 0.00167 µM | TGI (OVCAR-8 ovarian): > 16.7 µM | GI50 (EKVX NSCLC): < 0.00167 µM | TGI (EKVX NSCLC): > 16.7 µM | GI50 (HCC-2998 colon): < 0.00167 µM | GI50 (RXF 393 renal): < 0.00167 µM | TGI (RXF 393 renal): > 16.7 µM | GI50 (RPMI-8226 leukemia): < 0.00167 µM | TGI (RPMI-8226 leukemia): > 6.36 µM | GI50 (MDA-MB-231 breast): < 0.00167 µM | TGI (MDA-MB-231 breast): 0.647 µM | GI50 (SNB-19 CNS): < 0.00167 µM | TGI (SNB-19 CNS): > 16.7 µM | GI50 (NCI-H23 lung): < 0.00167 µM | TGI (NCI-H23 lung): > 16.7 µM

COc1ccc2c(c1)[C@@]13CCN4CC5=CCO[C@H]6CC(=O)N2[C@H]1[C@H]6[C@H]5C[C@H]43
TGI (HL-60(TB) leukemia): > 100 µM | TGI (CAKI-1 renal): > 100 µM | TGI (OVCAR-8 ovarian): > 100 µM | TGI (EKVX NSCLC): > 100 µM | TGI (HCC-2998 colon): > 100 µM | TGI (RXF 393 renal): > 100 µM | TGI (RPMI-8226 leukemia): > 100 µM | TGI (MDA-MB-231 breast): > 100 µM | TGI (SNB-19 CNS): > 100 µM | TGI (NCI-H23 lung): > 100 µM

Cc1c(C(=O)NN)nnn1-c1ccnc2c(C(F)(F)F)cccc12
GI50 (HL-60(TB) leukemia): > 100 µM | TGI (HL-60(TB) leukemia): > 100 µM | GI50 (CAKI-1 renal): > 100 µM | TGI (CAKI-1 renal): > 100 µM | GI50 (OVCAR-8 ovarian): > 100 µM | TGI (OVCAR-8 ovarian): > 100 µM | GI50 (EKVX NSCLC): > 100 µM | TGI (EKVX NSCLC): > 100 µM | GI50 (HCC-2998 colon): > 100 µM | TGI (HCC-2998 colon): > 100 µM | GI50 (RXF 393 renal): > 100 µM | TGI (RXF 393 renal): > 100 µM | GI50 (RPMI-8226 leukemia): > 100 µM | TGI (RPMI-8226 leukemia): > 100 µM | GI50 (MDA-MB-231 breast): > 100 µM | TGI (MDA-MB-231 breast): > 100 µM | GI50 (SNB-19 CNS): > 100 µM | TGI (SNB-19 CNS): > 100 µM | GI50 (NCI-H23 lung): > 100 µM | TGI (NCI-H23 lung): > 100 µM
